{"source": "patent US20250073209A1", "about": "“COVALENT TARGETING OF RhoA FOR CANCER THERAPY” (The University of Hong Kong, priority 2023, published 2025)", "key": {"RhoA-GEF interactions": {"target": "T1, RhoA-GEF interactions (Homo sapiens, UniProt P61586)", "T1 construct": "host or cells: GEFs overexpressed in HEK293T lysates", "T1 sequence (P61586 whole entry)": "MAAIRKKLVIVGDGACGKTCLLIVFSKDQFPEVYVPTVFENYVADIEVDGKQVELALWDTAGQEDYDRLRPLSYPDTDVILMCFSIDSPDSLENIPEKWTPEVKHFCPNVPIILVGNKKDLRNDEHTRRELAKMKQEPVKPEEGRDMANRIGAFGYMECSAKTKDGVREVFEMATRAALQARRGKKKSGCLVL", "assay": "Co-immunoprecipitation of GST-RhoA with GEF-containing cell lysates", "assay_type": "biochemical", "conditions": "GST-RhoA with HEK293T cell lysates", "procedure": "10 μg of purified GST-RhoA was immobilized on Glutathione resin (Pierce) and incubated with CL16 in GTP-exchange buffer (20 mM HEPES, 150 mM NaCl, 5 mM MgCl2, pH 7.4) for 1 hour. Then, the mixture was centrifuged at 700g for 2 min and supernatant was discarded. 120 μg of total cell lysate with overexpression of GEF (Arhgefl p-115, Arhgefl2 LARG DH-PH domain, Arhgef13 Akap Lbc) was added to the resin. The mixture was put on an end-to-end rotator and incubated at 4° C. for 4 hours. The resin was then washed, eluted and subjected to immunoblotting."}, "RhoA": {"target": "RhoA (Homo sapiens, UniProt P61586)", "sequence (P61586 whole entry)": "as above", "assay": "LC-MS/MS on HCT116 cells treated with CL16", "assay_type": "cell-based", "set-up": "endogenous in cells; host or cells: HCT116", "conditions": "CL16 25 or 50 μM, 4 hours", "procedure": "HCT116 cells were treated with DMSO or CL16 (25 or 50 μM) in complete medium for 4 hours, washed with PBS, harvested, and lysed in PBS by sonication. The protein amount of the samples was determined by BCA assay and normalized. The cell lysates in PBS were reduced by TCEP (1 mM) at 65° C. for 30 min, followed by alkylation with iodoacetamide (18 mM) at 37° C. for 30 min in the dark. The mixtures were added with prechilled acetone (600 μL) for protein precipitation at −20° C. overnight. The samples were centrifuged at 8000g for 10 min at 4° C. The supernatant was discarded and the dried pellet was resuspended in […] in PBS (100 μL). Sequencing grade trypsin (Promega #V5111) were added to the samples for overnight digestion at 37° C. with constant shaking. The solutions were then acidified with formic acid (FA; final concentration 5%), centrifuged at 13,200 rpm for 30 min at 4° C. The supernatant was collected and stored at −80° C. before MS analysis.\nThe peptide solutions were dried and desalted by C18 Stage tips, and the peptides were loaded onto an Aurora C18 UHPLC column (75 μm i.d.×25 cm length×1.6 μm particle size (IonOpticks Australia) coupled to timsTOF Pro mass spectrometer (Bruker). […]"}}, "data": [{"smiles": "O=C(CCl)N1N=C(c2cc3ccccc3o2)CC1c1ccco1", "note": "(centres unmarked) [CL16]", "values": [{"measurement": "RhoA interactions with ARHGEF1, LARG DH-PH domain, AKAP13 and ARHGAP4s", "setting": "RhoA-GEF interactions", "result": "disruption of RhoA interactions"}, {"measurement": "covalent modification site on RhoA", "setting": "RhoA", "result": "Cys16"}]}]}
